Data as given in article PMC12980303, “Development of a novel risk score reflecting the relative harm potential of synthetic cannabinoids based on prevalence estimates, well‐documented intoxication cases and basic pharmacological data” (Addiction (Abingdon, England), 2025).
Read-outs that look alike come from different tables or passages of the source. Marks after values point to notes of the source that are not given here.

Legend:
hCB1 receptor [1] = target: T1, hCB1 receptor (Homo sapiens, UniProt P21554); set-up: method as in Gamage et al. [40]; conditions: cited from earlier work
[2] = LC–MS/MS analysis of serum and urine samples of intoxication cases; format: in vivo, human; conditions: patient serum
Description: (§1) The data on intoxication cases used for the development of this risk score were obtained from a prospective study. This study included patients who were treated in an emergency department room following the consumption of an NPS. Clinical symptoms and follow‐up information were documented using a structured questionnaire completed by the attending physicians. The methodology has been previously published. Residual serum (obtained from venous blood) and urine samples, accompanied by the completed questionnaires, were sent to the Poisons Information Center Freiburg for further analysis. The toxicological analyses of serum and urine samples were conducted at the Institute of Forensic Medicine Freiburg. No data was available on previous consumption patterns or potential development of tolerance after continued misuse. The study was conducted in accordance with the Declaration of Helsinki and approved by the regional ethics committee of the University of Freiburg (no. 235/13_130683). The intoxication cases included in this study are those in which SCRA use was confirmed by liquid chromatography tandem mass spectrometry (LC–MS/MS).
Serum/blood and urine analyses were conducted at the Institute of Forensic Medicine Freiburg using previously published LC–MS/MS methods, that were modified by adding further analytes present in ‘legal‐high’ products (‘herbal blends’, ‘C‐liquids’ or ‘research chemicals’), and covered approximately 100 different SCRAs. Detailed information can be found in the Supporting Information.
Urine samples were analysed according to previously published and validated method by Franz et al.^2. For sample preparation 0.5 mL of phosphate buffer (pH 6) and 30 μL of β-glucuronidase were added to 0.5 mL of urine. Incubation was for 60 min at 45°C. This was followed by protein precipitation using 1.5 mL acetonitrile containing the internal standard (c = 2 ng/mL) and 0.56 mL 10 M ammonium formate solution, followed by shaking and centrifugation. 1 mL of the organic phase was transferred into an autosampler vial and evaporated to dryness under N2. The samples were reconstituted in 200 μL mobile phase.
Urine sample analysis was performed on a Dionex UltiMate® 3000RS UHPLC (Thermo Scientific, Dreieich, Germany) coupled to an API 5000^TM triple quadrupole instrument with a TurboIonSpray® interface (Sciex, Darmstadt, Germany). Separation was performed on a Luna C18 100 Å (150 x 2 mm, 5 μm) column with the mobile phase consisting of 0.2% HCOOH and 2 mmol/L NH^4+HCOO^− in water (A) and acetonitrile (B).

hCB1 receptor [3] = target: T1, hCB1 receptor; experiment: functional [35S]GTPγS hCB1 activation assay; format: biochemical
Description: (§2) Receptor assays were performed on three different days and each concentration was tested in duplicate.

hCB1 receptor [4] = target: T1, hCB1 receptor; experiment: competitive [3H]CP‐55940 radioligand binding assay (hCB1 receptor affinity); conditions: Ki [nM] (95% CI), [3H]CP‐55940 competition, hCB1 membrane preparations (HEK293‐EBNA), Cheng–Prusoff; 95% CI in brackets
Description: as §2
From the IC50, the respective Ki values were calculated using the Cheng–Prusoff equation [39].

[5] = risk score from prevalence in routine forensic samples and intoxication cases (G1, PSS, TSS); set-up: species or system human
Description: Therefore, higher values indicate substances with a higher risk. […] To take into account the severity of symptoms and the contribution of the specific NPS, two further summands were introduced. The first is based on the PSS, the second on the TSS. Again, higher values were associated with more severe symptoms and a stronger role of the NPS in causing the symptoms.
The risk score is composed of three components (parts G1, G2 and G3) and was designed as follows: (1) Gx=G1x+G2x+G3x,
Equation 2 takes into consideration several components: the number of intoxications with SCRA x in quarter k over the total number of intoxications of all investigated SCRAs in the same quarter; the number of serum/blood samples positive for SCRA x over the total number of serum/blood samples positive for all SCRAs plus the number of urine samples positive for SCRA x over the total number of urine samples positive for all SCRAs (this is divided by two to account for the two different sample types); and the number of quarters in which the SCRA x was prevalent. (2) G1x=∑k=1gak/bk/ck/dk+ek/fk/2/h+i
Consequently, equation 2 was mathematically rearranged. To further simplify the equation and reduce the formula signs, in equation 3 the following simplifications were taken: a/b=ai , c/d=as and e/f=au .
The sum of these quotients was divided by the number of all prevalent quarters (q p ). Prevalent quarters were defined as quarters in which on average the substance was detected in more than 5% of the positive serum and urine samples. If a poisoning occurred in a quarter in which the substance was not prevalent, the number of these quarters was added (q i ). This part of the score has similarities with an OR [42]. If the proportion of routine samples in a given quarter in which an intoxication with the respective substance occurred was zero (a s + a u = 0), a value of 0.01 was used for that quarter in the calculation of the quotient to avoid division by zero.
For part G2, the severity of the intoxication caused by the respective SCRA x was assessed on the basis of reported symptoms and follow‐up information using the PSS [20]. The PSS classifies the intoxication severity into five levels: (0) no, (1) mild, (2) moderate, (3) severe, and (4) fatal intoxication. […] For this purpose, the mean value of the PSS of all intoxications with the respective SCRA x was calculated ( G2x) .
For part G3, the involvement of the SCRA in the respective intoxications was assessed. This was evaluated on the basis of the TSS [21]. Elliott et al. developed the TSS to assess and classify the contribution of NPS in fatalities. In the present study, the TSS was determined to weigh the involvement of the investigated SCRA in the intoxication and the contribution of the SCRA to the observed symptoms. To determine the TSS value, factors such as the determined concentration of the SCRA, the presence of other recreational drugs or medicinal drugs, the general health of the patient and the consumption circumstances need to be considered. […] In cases with more than one drug detected, a TSS of 3 was only assigned where other compounds were present at concentrations below the range in which relevant effects are to be expected.
For the risk score, the mean value of the TSS of all intoxications with substance x was calculated ( G3x) . Analogous to the value of G2x , the value of G3x can theoretically be between 1 and 3. With a value of ‘1’, substance x was not mainly responsible for the symptoms in all of the intoxications (low level of significance), and with a value of ‘3’, it was the main cause in every poisoning in which it was detected.

hCB1 receptor [6] = target: T1, hCB1 receptor; conditions: ref Wouters et al. [31], cited from earlier work
[7] = occurrence of SCRAs in intoxication samples of the prospective study; set-up: species or system human; conditions: 2013 to 2021
Description: For this study, the 10 SCRAs (AB‐[…], ADB‐[…], AB‐FUBINACA, FUB‐AMB, Cumyl‐PEGACLONE, MDMB‐4en‐PINACA, MDMB‐CHMICA, 5F‐MDMB‐PICA, 5F‐ADB and 5F‐PB‐22) which were most frequently detected in intoxications in a prospective observational study during the time period of 2013 to 2021 were selected (see Table 1). Additionally, JWH‐210, a model compound representative of the early SCRAs, along with two substances prevalent in screenings during years 2019/2020 (5F‐Cumyl‐PEGACLONE and 4F‐MDMB‐BICA), were included in this study (see Tables S2–S7). […] JWH‐018 was also included as a reference compound because of its historical use in this capacity. Including both reference compounds facilitates direct comparison with previously published data, thereby enhancing the relevance and interpretability of the results obtained in the present study. Information on the origin of the test and reference compounds and all chemicals used in this study can be found in Table S1.
as §1

[8] = intoxication case B (AB‐CHMINACA)

T1 sequence (P21554 whole entry): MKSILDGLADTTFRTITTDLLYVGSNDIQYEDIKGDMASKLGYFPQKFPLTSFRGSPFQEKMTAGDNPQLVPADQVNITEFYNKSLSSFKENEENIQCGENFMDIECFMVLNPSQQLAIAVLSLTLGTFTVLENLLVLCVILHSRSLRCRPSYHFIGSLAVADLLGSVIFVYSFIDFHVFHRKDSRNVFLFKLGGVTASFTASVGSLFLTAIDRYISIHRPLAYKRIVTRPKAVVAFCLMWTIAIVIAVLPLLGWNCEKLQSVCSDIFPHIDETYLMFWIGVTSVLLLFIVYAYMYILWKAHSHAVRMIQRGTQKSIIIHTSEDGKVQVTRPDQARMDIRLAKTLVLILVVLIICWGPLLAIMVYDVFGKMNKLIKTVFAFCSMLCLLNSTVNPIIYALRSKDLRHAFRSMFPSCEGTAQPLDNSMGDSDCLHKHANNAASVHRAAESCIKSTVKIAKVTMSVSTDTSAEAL

## COC(=O)C(NC(=O)c1nn(Cc2ccc(F)cc2)c2ccccc12)C(C)C (stereo not shown) [FUB‐AMB]
hCB1 receptor [1]; read-out: [35S]‐GTPγS assay EC50 [nM] (95% CI), ref Gamage et al. [40]
  EC50: 0.543 nM
hCB1 receptor [1]; relative to CP‐55940, cell without footnote mark, EC50 of the same line from ref Gamage et al. [40]
  [35S]‐GTPγS assay Emax [%] (95% CI): 69.42 (62.6–76.2) %

## CNC(C)C(=O)c1cccc(C)c1 (stereo not shown) [3‐MMC]
[2]; intoxication case A (AB‐CHMINACA)
  Concentration in serum: 320 ng/mL
[2]; intoxication case A (AB‐CHMINACA), listed as 3-MMC
  Concentration in serum: ~3-MMC approximately 320 ng/mL

## O=C(Oc1cccc2cccnc12)c1cn(CCCCCF)c2ccccc12 [5F‐PB‐22]
hCB1 receptor [3]
  EC50: 2.73 nM
hCB1 receptor [3]; read-out: [35S]‐GTPγS assay Emax [%] (95% CI)
  Emax: 124%
[2]; [8]
  Concentration in serum: ~1.5 ng/mL
hCB1 receptor [4]
  Ki: 0.0996 nM
[5]; G1+G2+G3, higher value = greater toxicological risk
  G total (risk score): 9.9
[5]; mean Poison Severity Score (PSS) of all intoxications with the SCRA
  G2: 1.9
[5]; mean Toxicological Significance Score (TSS) of all intoxications with the SCRA
  G3: 2.7
[5]; proportion in intoxication cases relative to prevalence in routine serum/blood and urine samples per quarter, 2013–2021, >1 over‐represented in intoxications
  G1: 5.3
hCB1 receptor [6]; read-out: βarr2 assay EC50 [nM] (95% CI)
  EC50: 0.32 nM
hCB1 receptor [6]; relative to CP‐55940
  βarr2 assay Emax [%] (95% CI): 980.2 ^d (888.2–1072) %
[7]; 139 intoxication samples of the prospective study
  No. of intoxications: 13
[7]; proportion of 139 intoxications in which the substance was detected
  Percentage in %: 9.4%

## O=C(c1cccc2ccccc12)c1nn(CCCCCF)c2ccccc12 [THJ-2201]
[2]; [8]
  Concentration in serum: < 0.1 ng/mL

## CCCCCn1nc(C(=O)c2cccc3ccccc23)c2ccccc21 [THJ-018]
[2]; [8]
  Concentration in serum: < 0.1 ng/mL

## O=C(NC12CC3CC(CC(C3)C1)C2)c1nn(CCCCCF)c2ccccc12 [5F-AKB-48]
[2]; [8]
  Concentration in serum: < 0.1 ng/mL
